Ends that are not written are not given here.

The test system of experiment [1] is VIT4-G9 cells. The experiment is described as follows: Insulin secretion from VIT4-G9 cultures after growth/differentiation conditions. The format is cell-based, human. The method, then:
ILCC were examined to determine the level of insulin content and its secretion by use an immunoassay specific to human insulin (Linco Research, Catalog Number EZHI-14K). Since the growth medium contains recombinant human insulin, tissues were extensively washed with PBS prior to determination of secretion. ILCC were acutely maintained in a physiological saline solution (140 mM NaCl, 5 mM KCl, 5 mM CaCl2, 0.5% BSA, 1 mM sodium pyruvate, 2 mM glucose, and 10 mM HEPES, pH 7.4). […] The control solution contained 2 mM glucose, the elevated glucose solution was identical but contained 20 mM glucose, and the elevated K^+ solution contained 50 mM K^+, while the other constituents were identical to the control solution. The physiological saline solution was collected following centrifugation (10 minutes at 470×g) and frozen at −20° C. for later analysis. The remaining ILCC were lyzed in 10 mM Tris, 1 mM EDTA and 10% glycerol; the pellet was extracted overnight at 4° C. in 70% ethanol, 0.18 mM HCl and the extract was dried using Model DNA 110 Speed Vac (Savant, Inc.). The dried extract was reconstituted in 100 μl PBS prior to assay for insulin content. […] For example, glucose-stimulated insulin secretion requires expression of functional glucose transporter protein and glucokinase in addition to insulin. […]

Experiment [2] has as its system VIT1 cells. The experiment is described as follows: IHC analysis of insulin or Ep-CAM positive cells in VIT1 culture exposed to nicotinamide. In kind it is cell-based, human. The settings on record: 10 mM nicotinamide, 5-day exposure.
Experiment [3] relates to VIT4-G9 cells. The experiment is described as follows: Effect of nicotinamide on prevalence of ILCC in VIT4-G9 cultures. The format is cell-based, human. The settings on record: 10 mM nicotinamide. The source says:
A general principle of developmental cell biology is that cellular differentiation and growth are at least partially exclusive of each other. High rates of cellular proliferation usually occur in the absence of differentiation, while differentiation usually requires quiescence or low rates of cell proliferation. Initial observations of the clonal cell line VIT4-G9 were consistent with this concept since pancreatic hormone-containing ILCC only appeared at later stages of culture following slower cell growth as a consequence of confluence and possibly contact inhibition.

In experiment [4] the test system is primary cultures of dispersed human pancreatic cells. The experiment is described as follows: Effect of HGF on ILCC growth and morphology in primary cultures. The format is cell-based. The protocol:
The effects of hepatocyte growth factor (HGF; PeproTech, Inc. Catalog Number 100-39) were determined by addition to the growth medium described above at a final concentration of 30 ng/ml. […] The acute effects of HGF on ILCC growth and morphology were determined and longer-term experiments were conducted as follows. The sample consisted of a cryopreserved, non-settled fraction of cells resulting from sub-culture of ILCC from the first passage of the culture of human pancreatic dispersed cells prepared as described above. The frozen cells were rapidly thawed, cryopreservative was washed out and the cells were plated at 10,000/cm^2 during the second passage. Cultures were exposed to 30 ng/ml HGF or control medium without added HGF and the cultures were expanded through 4 passages. Thereafter, both the control and HGF cultures were maintained and expanded through 8 passages using growth medium without added HGF. The number of ILCC in these cultures was determined by microscopic inspection.
To determine if ILCC cultures were affected by environmental conditions, the effect of HGF exposure was determined as described above (See: Methods). HGF is known to be mitogenic to beta cells, increases beta cell mass and total insulin production in vivo (Gracia-Ocana, et. al, 2000). HGF is also a known survival factor for a variety of cells (Dai, et. al, 2003). […]

In experiment [5] the test system is VIT1 cells. The experiment is described as follows: Induction of ILCC, insulin and Ep-CAM in VIT1 cells by GLP-1 (IHC). In kind it is cell-based, human. The method, then:
VIT1 cells were cultured and expanded through multiple passages as described in Example 2, “Cell Growth Analysis”. The culture medium used for expansion was VitroPlus II, (Vitro Diagnostics, Inc, Catalog Number VC03014) containing 10 nM GLP-1 (1-37) (Bachem, Catalog Number H-5552). Different cultures were expanded for 11 to 20 days encompassing two to five passages prior to immunohistochemical determination of insulin or Ep-CAM. A negative control culture that was expanded in VitroPlus II without added GLP-1 through 6 passages (24 days) prior to IHC determination of insulin. Insulin and Ep-CAM presence within these cultures was determined by fixation of the cultured cells in 1% glutaraldehyde, overnight incubation with insulin MAB (Sigma Chemical Co, Catalog Number I2018) at 1/1000 dilution in PBS or Ep-CAM, (Epithelial Specific Antigen) MAB (Biogenesis, Catalog Number 4240-4009) at 1/200 dilution in PBS followed by washout and incubation with an HRP-conjugated secondary antibody (Goat-anti-mouse-HRP (Jackson ImmunoResearch Laboratories, Inc., Catalog Number 115-035-062) at 37° C. for 30 minutes. Following washout of the secondary antibody, the fixed cells were then incubated for 15 minutes in diaminobenzidine (Sigma Chemical Co, Catalog Number D-4293), and the stained cultures were examined by phase-contrast microscopy and photographed. […]

On to `NC(=O)c1cccnc1` [nicotinamide], for which, in experiment [1] (10 mM nicotinamide in 0.5% FBS VitroPlus II, 6 days), the “Glucose-stimulated insulin secretion: requirement in differentiation phase” value was “necessary”. For the same compound, the “Number of insulin or Ep-CAM positive cells by IHC” value in experiment [2] is reported as “did not appear to change”. Further, the “Increase in prevalence of ILCC” value in experiment [3] is given as “about 5 fold”.

As to hepatocyte growth factor [HGF], the “Increase in number of ILCC” value in experiment [4] (30 ng/ml HGF during passages 2 through 4, counted at early pass 7) is on record as about 5 fold. Also, the “Morphology of ILCC” value in experiment [4] (30 ng/ml HGF, short time of exposure, reversed when HGF removed) is on record as “shift in the morphology of ILCC from larger islets containing small cells to more loosely attached, smaller islets composed of larger cells”.

For the compound “glucagon-like peptide 1 (HAEGTFTSDVSSYLEGQAAKEFIAWLVKGR; ends and bridges not checked; UniProt P01275 98-127, looked up) [GLP-1, GLP-1 (1-37) (Bachem, Catalog Number H-5552)]”, in experiment [1] (GLP-1 in VitroPlus II, 5 days), the “Glucose-stimulated insulin secretion: requirement during growth phase” value was “necessary”. Also, in experiment [5] (10 nM GLP-1), the “Ep-CAM expression by IHC” value is “induced”. Also, in experiment [5] (10 nM GLP-1 in VitroPlus II versus no GLP-1), the “Reduction of ILCC frequency in negative control culture lacking GLP-1” value was “thousand-fold”.

The record behind these values is patent US7527971B2, “Adult stem cell lines” (Vitro Diagnostics, Inc., priority 2004, dated 2009).
